Like-named read-outs stand apart in the source and are kept apart here.
Legend:
[1] = tested on: cervical carcinoma cell lines; test: Cell based assay, cell viability (CellTiter-Glo), cervical carcinoma cell lines; conditions: Homo sapiens; HeLa cells
Description: Commercially available bladder cancer, prostate cancer, lung cancer, breast cancer, blood cancer, pancreatic cancer, colorectal cancer, brain cancer, neuroblastoma, melanoma, liver cancer, cervical carcinoma, ovarian cancer, renal cancer, and papilloma cell lines were each treated with trypsin-EDTA and cultured, followed by being seeded in each well of a 96 well plate. […] The treated cells were additionally cultured for 72 hours, and cell viability was measured by using an ATP detection method (CellTiter-Glo® Luminescent Cell Viability Assay, Promega).

[2] = tested on: blood cancer cell lines (e.g. HL-60, Jurkat, Raji, Ramos, Daudi, MOLT-4); test: Cell based assay, cell viability (CellTiter-Glo), blood cancer cell lines; conditions: Homo sapiens
Description: (§1) Commercially available bladder cancer, prostate cancer, lung cancer, breast cancer, blood cancer, pancreatic cancer, colorectal cancer, brain cancer, neuroblastoma, melanoma, liver cancer, cervical carcinoma, ovarian cancer, renal cancer, and papilloma cell lines were each treated with trypsin-EDTA and cultured, followed by being seeded in each well of a 96 well plate. After 24 hours of treatment at constant temperature, the respective cells were treated with the candidate compound so that a final concentration became 0 to 2 μM. The treated cells were additionally cultured for 72 hours, and cell viability was measured by using an ATP detection method (CellTiter-Glo® Luminescent Cell Viability Assay, Promega).

[3] = tested on: pancreatic cancer cell lines (e.g. MIA PaCa-2); test: Cell based assay, cell viability (CellTiter-Glo), pancreatic cancer cell lines; conditions: Homo sapiens
Description: as §1

[4] = MV4-11, blood cancer cell line MV-4-11, 72 hours, read-out: IC50, MV-4-11
[5] = blood cancer cell line Daudi, 72 hours, read-out: IC50, Daudi
[6] = blood cancer cell line HL-60, 72 hours, read-out: IC50, HL-60
[7] = blood cancer cell line Jurkat, 72 hours, read-out: IC50, Jurkat
[8] = blood cancer cell line MOLT-4, 72 hours, read-out: IC50, MOLT-4
[9] = blood cancer cell line Raji, 72 hours, read-out: IC50, Raji
[10] = blood cancer cell line Ramos (RA 1), 72 hours, read-out: IC50, Ramos (RA 1)
[11] = blood cancer cell line U-937, 72 hours, read-out: IC50, U-937
[12] = pancreatic cancer cell line AsPC-1, 72 hours, read-out: IC50, AsPC-1
[13] = pancreatic cancer cell line BxPC-3, 72 hours, read-out: IC50, BxPC-3
[14] = pancreatic cancer cell line CFPAC-1, 72 hours, read-out: IC50, CFPAC-1
[15] = pancreatic cancer cell line Capan-1, 72 hours, read-out: IC50, Capan-1
[16] = pancreatic cancer cell line Capan-2, 72 hours, read-out: IC50, Capan-2
[17] = pancreatic cancer cell line MIA PaCa-2, 72 hours, read-out: IC50, MIA PaCa-2
[18] = pancreatic cancer cell line PANC-1, 72 hours, read-out: IC50, PANC-1

Row | IC50 [1] [nM] | IC50 [2, 4] [nM] | IC50 [2, 5] [nM] | IC50 [2, 6] [nM] | IC50 [2, 7] [nM] | IC50 [2, 8] [nM] | IC50 [2, 9] [nM] | IC50 [2, 10] [nM] | IC50 [2, 11] [nM] | IC50 [3, 12] [nM] | IC50 [3, 13] [nM] | IC50 [3, 14] [nM] | IC50 [3, 15] [nM] | IC50 [3, 16] [nM] | IC50 [3, 17] [nM] | IC50 [3, 18] [nM] | SMILES
1 | > 10000 | > 2000 | > 2000 | > 2000 | > 2000 | > 2000 | > 2000 | > 2000 | > 2000 | > 2000 | > 2000 | > 10000 | > 2000 | > 2000 | > 2000 | > 2000 | CC(=O)c1c(SCc2cc(F)cc(F)c2)[nH]c2c(Br)ccc(Cl)c2c1=O [Compound 45, 3-acetyl-8-bromo-5-chloro-2-((3,5-difluorobenzyl)thio)quinolin-4(1H)-one]
2 | > 10000 | > 2000 | > 2000 | > 2000 | > 2000 | > 2000 | > 2000 | > 2000 | > 2000 | > 2000 | > 2000 | > 10000 | > 2000 | > 2000 | > 2000 | > 2000 | CC(=O)c1c(SCc2cccc(I)c2)[nH]c2c(Br)ccc(Cl)c2c1=O [Compound 47, 3-acetyl-8-bromo-5-chloro-2-((3-iodobenzyl)thio)quinolin-4(1H)-one]
3 | > 10000 | > 2000 | > 2000 | > 2000 | > 2000 | > 2000 | > 2000 | > 2000 | > 2000 | > 2000 | > 2000 | > 10000 | > 2000 | > 2000 | > 2000 | > 2000 | CC(=O)c1c([S+]([O-])Cc2cccc(I)c2)[nH]c2c(Br)ccc(Cl)c2c1=O (centres unmarked) [Compound 48, 3-acetyl-8-bromo-5-chloro-2-((3-iodobenzyl)sulfinyl)quinolin-4(1H)-one]
4 | > 10000 | > 2000 | > 2000 | > 2000 | > 2000 | > 2000 | > 2000 | > 2000 | > 2000 | > 2000 | > 2000 | > 10000 | > 2000 | > 2000 | > 2000 | > 2000 | CC(=O)c1c(SCc2cccc(F)c2)[nH]c2c(Br)ccc(Cl)c2c1=O [Compound 49, 3-acetyl-8-bromo-5-chloro-2-((3-fluorobenzyl)thio)quinolin-4(1H)-one]
5 | > 10000 | > 2000 | > 2000 | > 2000 | > 2000 | > 2000 | > 2000 | > 2000 | > 2000 | > 2000 | > 2000 | > 10000 | > 2000 | > 2000 | > 2000 | > 2000 | CC(=O)c1c(SCc2ccccc2)nc2c(Br)ccc(Cl)c2c1O [Compound 52, 1-(2-(benzylthio)-8-bromo-5-chloro-4-hydroxyquinolin-3-yl)ethan-1-one]
6 | > 10000 | > 2000 | > 2000 | > 2000 | > 2000 | > 2000 | > 2000 | > 2000 | > 2000 | > 2000 | > 2000 | > 10000 | > 2000 | > 2000 | > 2000 | > 2000 | CC(=O)c1c(S(=O)(=O)Cc2ccccc2)nc2c(Br)ccc(Cl)c2c1O [Compound 54, 1-(2-(benzylsulfonyl)-8-bromo-5-chloro-4-hydroxyquinolin-3-yl)ethan-1-one]
7 | > 10000 | 970 | 1980 | 870 | 990 | 1240 | 940 | 1250 | 730 | > 2000 | > 2000 | > 10000 | > 2000 | > 2000 | 810 | > 2000 | CC(=O)c1c([S+]([O-])Cc2ccccc2C#N)[nH]c2c(Br)ccc(Cl)c2c1=O (centres unmarked) [Compound 58, 2-(((3-acetyl-8-bromo-5-chloro-4-oxo-1,4-dihydroquinolin-2-yl)sulfinyl)methyl)benzonitrile]
8 | > 10000 | > 2000 | > 2000 | > 2000 | > 2000 | > 2000 | > 2000 | > 2000 | > 2000 | > 2000 | > 2000 | > 10000 | > 2000 | > 2000 | > 2000 | > 2000 | COCSc1[nH]c2c(Br)ccc(Cl)c2c(=O)c1C(C)=O [Compound 61, 3-acetyl-8-bromo-5-chloro-2-((methoxymethyl)thio)quinolin-4(1H)-one]
9 | > 10000 | > 2000 | > 2000 | > 2000 | > 2000 | > 2000 | > 2000 | > 2000 | > 2000 | > 2000 | > 2000 | > 10000 | > 2000 | > 2000 | > 2000 | > 2000 | CC(=O)c1c(S)[nH]c2c(Br)ccc(Cl)c2c1=O [Compound 62, 3-acetyl-8-bromo-5-chloro-2-mercaptoquinolin-4(1H)-one]
10 | > 10000 | > 2000 | > 2000 | > 2000 | > 2000 | > 2000 | > 2000 | > 2000 | > 2000 | > 2000 | > 2000 | > 10000 | > 2000 | > 2000 | > 2000 | > 2000 | CC(=O)c1c([S+]([O-])Cc2ccc(C(=O)c3ccccc3)cc2)[nH]c2c(Br)ccc(Cl)c2c1=O (centres unmarked) [Compound 63, 3-acetyl-2-((4-benzoylbenzyl)sulfinyl)-8-bromo-5-chloroquinolin-4(1H)-one]

Further lines, the molecule ahead of its results:

Row | SMILES | IC50 [1] [nM] | IC50 [2, 4] [nM] | IC50 [2, 5] [nM] | IC50 [2, 6] [nM] | IC50 [2, 7] [nM] | IC50 [2, 8] [nM] | IC50 [2, 9] [nM] | IC50 [2, 10] [nM] | IC50 [2, 11] [nM] | IC50 [3, 12] [nM] | IC50 [3, 13] [nM] | IC50 [3, 14] [nM] | IC50 [3, 15] [nM] | IC50 [3, 16] [nM] | IC50 [3, 17] [nM] | IC50 [3, 18] [nM]
11 | CSc1c(C(C)=O)c(=O)c2c(Cl)ccc(Br)c2n1S(=O)(=O)c1ccc([N+](=O)[O-])cc1 [Compound 38, 3-acetyl-8-bromo-5-chloro-2-(methylthio)-1-((4-nitrophenyl)sulfonyl)quinolin-4(1H)-one] | > 10000 | > 2000 | > 2000 | > 2000 | > 2000 | > 2000 | > 2000 | > 2000 | > 2000 | > 2000 | > 2000 | > 10000 | > 2000 | > 2000 | > 2000 | > 2000
12 | CCS(=O)(=O)n1c([S+](C)[O-])c(C(C)=O)c(=O)c2c(Cl)ccc(Br)c21 (centres unmarked) [Compound 39, 3-acetyl-8-bromo-5-chloro-1-(ethylsulfonyl)-2-(methylsulfinyl)quinolin-4(1H)-one] | > 10000 | > 2000 | > 2000 | > 2000 | > 2000 | > 2000 | > 2000 | > 2000 | > 2000 | > 2000 | > 2000 | > 10000 | > 2000 | > 2000 | > 2000 | > 2000
13 | CSc1c(C(C)=O)c(=O)c2c(Cl)ccc(Br)c2n1S(=O)(=O)c1ccc(C(C)(C)C)cc1 [Compound 40, 3-acetyl-8-bromo-1-((4-(tert-butyl)phenyl)sulfonyl)-5-chloro-2-(methylthio)quinolin-4(1H)-one] | > 10000 | > 2000 | > 2000 | > 2000 | > 2000 | > 2000 | > 2000 | > 2000 | > 2000 | > 2000 | > 2000 | > 10000 | > 2000 | > 2000 | > 2000 | > 2000
14 | CC(=O)c1c(S(C)(=O)=O)n(S(=O)(=O)c2ccc(C(C)(C)C)cc2)c2c(Br)ccc(Cl)c2c1=O [Compound 41, 3-acetyl-8-bromo-1-((4-(tert-butyl)phenyl)sulfonyl)-5-chloro-2-(methylsulfonyl)quinolin-4(1H)-one] | > 10000 | > 2000 | > 2000 | > 2000 | > 2000 | > 2000 | > 2000 | > 2000 | > 2000 | > 2000 | > 2000 | > 10000 | > 2000 | > 2000 | > 2000 | > 2000
15 | CC(=O)c1c([S+](C)[O-])n(S(=O)(=O)c2ccc(C(C)(C)C)cc2)c2c(Br)ccc(Cl)c2c1=O (centres unmarked) [Compound 42, 3-acetyl-8-bromo-1-((4-(tert-butyl)phenyl)sulfonyl)-5-chloro-2-(methylsulfinyl)quinolin-4(1H)-one] | > 10000 | > 2000 | > 2000 | > 2000 | > 2000 | > 2000 | > 2000 | > 2000 | > 2000 | > 2000 | > 2000 | > 10000 | > 2000 | > 2000 | > 2000 | > 2000
16 | CC(=O)c1c(SCc2cc(Cl)ccc2Cl)[nH]c2c(Br)ccc(Cl)c2c1=O [Compound 43, 3-acetyl-8-bromo-5-chloro-2-((2,5-dichlorobenzyl)thio)quinolin-4(1H)-one] | > 10000 | > 2000 | > 2000 | > 2000 | > 2000 | > 2000 | > 2000 | > 2000 | > 2000 | > 2000 | > 2000 | > 10000 | > 2000 | > 2000 | > 2000 | > 2000
17 | CC(=O)c1c([S+]([O-])Cc2ccccc2)nc2c(Br)ccc(Cl)c2c1O (centres unmarked) [Compound 53, 1-(2-(benzylsulfinyl)-8-bromo-5-chloro-4-hydroxyquinolin-3-yl)ethan-1-one] | > 10000 | > 2000 | > 2000 | > 2000 | > 2000 | > 2000 | > 2000 | > 2000 | > 2000 | > 2000 | > 2000 | > 10000 | > 2000 | > 2000 | > 2000 | > 2000

— patent US11464770B2, “Anticancer pharmaceutical composition” (NATIONAL CANCER CENTER, priority 2016, dated 2022)
